Source: US6963769B1, “Method for enhancing contrast produced by MRI” (The United States of America as represented by the …, priority 1999, dated 2005)
Values joined by “and” are separate entries in the source; they are usually repeats but may differ in a detail not shown here. Equal entries are not always repeated. Structures can show the parent of a compound that is named as a salt. Where two headings read alike, the source gives them in different places.

Key:
[1] = in vitro CEDST spectra of candidate contrast agents (proton chemical exchange with water), 7T; conditions: for chemical shift of proton chemical exchange site (ΔωcA): relative to water
Description: Test compounds were dissolved in HPLC grade water at concentrations denoted in Table 1 with inorganic phosphate buffers to maintain pH.
CEDST spectra were acquired at 7T using a Bruker AC-300 wide bore spectrometer at 37° C. The observation frequency was set on the water peak and the decoupler was used to provide off-resonance saturation. Studies were conducted using a steady-state with irradiation (15 seconds) over a range of irradiation frequencies ±8.00 ppm from water. CEDST spectra were plotted in the form of water amplitude (Ms) versus irradiation frequency.
Several chemical reagents, including 5,6-dihydrouracil, 5-hydroxy-tryptophan, hydantoin, parabanic acid, sugars, amino acids, nucleosides, and imidazoles (Table 1), were tested for their ability to undergo proton chemical exchange detected using CEDST. Chemical shifts are reported relative to the water resonance. The spectral dependence of CEDST was determined by sweeping the irradiation frequency and while monitoring the water resonance.
Saturation depends on the B1 power and the irradiation offset frequency. The appropriate power was determined by increasing power until no further decrease in Ms was observed. […] Spin lattice relaxation time constants (T1) were obtained with inversion-recovery experiments. The range of inversion delays (Ti) was between 0.001 and 30 seconds, with a 30 second pre-delay.

[2] = cited from earlier work
[3] = MR images of phantoms, 4T GRE sequence with off-resonance saturation at ±850 Hz (5.00 ppm), difference image; format: physicochemical
Description: The results in FIG. 3 confirm those of FIG. 2. MR images of phantoms were collected on a custom-designed 4T system operating at room temperature (about 20° C.). The imaging sequence itself is a GRE (Gradient Recalled Echo) imaging sequence with an off-resonance saturation pulse centered at an offset of 5.00 ppm (850 Hz for the field at 4 Tesla). The other parameters used were: 90 degree flip angle used, TE (Echo time)=9 msec, TR (Repetition time)=1.2 sec, 16 Sinc pulses, followed by crusher gradients (which completely dephased the transverse magnetization). Four test tubes are shown in FIG. 3, with each containing a different solution. Three contained 62.5 mM barbituric acid at pH=7.4, 7.0, or 6.5. The fourth test tube contained 500 mM NH4Cl at pH=5.0. These test tubes were placed inside the 4T NMR imaging system, irradiated at ±850 Hz, and both control and experimental images were collected as described previously. FIG. 3 is the difference image generated by subtracting the experimental image from the control image. […] Therefore, the signals in these phantoms were generated due to proton chemical exchange with barbituric acid. The brightest signal in these phantoms (where the control and experimental image difference was the greatest) was generated by barbituric acid at pH=7.4.

[4] = pKa of the proton exchange site
rabbit bladder = experiment: in vivo CEDST MRI of rabbit bladder after intravenous barbituric acid, 4 Tesla; set-up: species or system New Zealand White rabbit
Description: This example describes the in vivo analysis of barbituric acid in a rabbit bladder. A male New Zealand White rabbit (1.5 kg, Hazelton Research Products, Denver Pa.) was initially anaesthetized with an intramuscular injection of a mixture of ketamine/acepromazaine (180 mg/2 mg), intubated and placed on a Siemens 900c ventilator (Siemens Medical Systems, Danvers Mass.). A catheter was placed in the marginal ear vein for infusion of intravenous fluids to maintain volume status. This catheter also was used to administer three doses of 50 mL barbituric acid solution (125 mM, pH=7.4, 20 mM phosphate buffer). Anesthesia was maintained with 2% isoflurane until sacrifice with 6 meq of KCl IV.
The rabbit was analyzed using a 4 Tesla magnet at the settings described in Example 1. The images were obtained after irradiation at the ppm offset characteristic of barbituric acid (5.25). […] The bladder and surrounding muscles are visible. This control image is collected to correct for the broad background of saturation transfer from macromolecules (i.e. proteins, lipids) located underneath the water signal. Guivel-Scharen et al., J. Magn. Reson., 133:36-45 (1998), herein incorporated by reference. […] This will irradiate the barbituric acid signal.
Following sacrifice of the rabbit, urine was collected and evaluated on the 7T system at 37° C. as described in Example 1. […] FIGS. 12-14 also confirm the identity of the metabolite imaged during the in vivo analysis.

[5] = cited from earlier work; remark: listed apart in the source
[6] = sugars 250 mM, —OH protons, single pH 7.0, 37° C., 20 mM phosphate buffer
[7] = sugars 250 mM, —OH protons, single pH 7.0, 37° C., 20 mM phosphate buffer, saturation power 10.88 × 10^−7T
[8] = 125 mM, 37° C., 20 mM phosphate buffer, 10.88 × 10^−7T, at given ppm and pH
[9] = 125 mM, 37° C., 20 mM phosphate buffer, exchange site
[10] = 125 mM, guanidinium protons, single pH 7.0, 37° C., 20 mM phosphate buffer, 10.88 × 10^−7T
[11] = 62.5 mM, 37° C., 20 mM phosphate buffer, 10.88 × 10^−7T, at given ppm and pH
[12] = 62.5 mM, 37° C., 20 mM phosphate buffer, exchange site
[13] = 35 mM, —NH2, 37° C., 20 mM phosphate buffer, 10.88 × 10^−7T, at listed pH
[14] = 125 mM, 3-NH, 37° C., 2 mM phosphate buffer, 10.88 × 10^−7T, at listed pH
[15] = imidazole derivatives, ring protons (—NH), concentration not given, 37° C., 20 mM phosphate buffer

O=C[C@H](O)[C@@H](O)[C@@H](O)[C@H](O)CO [Galactose]
ppm (relative to the resonant frequency of water) [1, 6]: 1.167 ppm | Mo − Ms (%) [1, 7]: 10.3% | Ms/Mo [1, 7]: 0.85

NC(=O)CC[C@H](N)C(=O)O [L-Glutamine]
Mo − Ms (%) [1, 8]: 27.6% | Ms/Mo [1, 8]: 0.70 | ppm (relative to the resonant frequency of water) [1, 9]: 2.000 ppm

N=C(N)N [Guanidine HCl]
ppm (relative to the resonant frequency of water) ([1]; 125 mM, guanidinium protons, single pH 7.0, 37° C., 20 mM phosphate buffer): 2.000 ppm | Mo − Ms (%) [1, 10]: 60.0% | Ms/Mo [1, 10]: 0.38

OC[C@@H](O)[C@@H](O)[C@H](O)[C@@H](O)CO [Sorbitol]
ppm (relative to the resonant frequency of water) [1, 6]: 1.000 ppm | Mo − Ms (%) [1, 7]: 7.3% | Ms/Mo [1, 7]: 0.88

NCCCC[C@H](N)C(=O)O [L-Lysine]
Mo − Ms (%) [1, 8]: 66.2% | Ms/Mo [1, 8]: 0.34 | ppm (relative to the resonant frequency of water) [1, 9]: 3.000 ppm

O=C1CCNC(=O)N1 [5,6 Dihydrouracil]
pKa of the 5.00 ppm site [2]: ~9.5 | Mo − Ms (%) [1, 11]: 22.2% | Ms/Mo [1, 11]: 0.78 and 0.77 | ppm (relative to the resonant frequency of water) [1, 12]: 5.000 ppm and 2.667 ppm | chemical shift of proton chemical exchange site (ΔωcA) ([1]; running text, listed as 5,6-dihydro-uracil): 5.00 ppm and 2.67 ppm | chemical shift of proton chemical exchange site (ΔωcA) ([1]; running text, listed as 5,6-dihydrouracil): 5.0 ppm and 2.67 ppm

OC[C@@H](O)[C@@H](O)[C@H](O)[C@H](O)CO [Mannitol]
ppm (relative to the resonant frequency of water) [1, 6]: 1.000 ppm | Mo − Ms (%) [1, 7]: 9.0% | Ms/Mo [1, 7]: 0.89

O=C(O)C1CCN1 (stereo not shown) [Azetidine-2-Carboxylic Acid]
Mo − Ms (%) [1, 11]: 25.5% | Ms/Mo [1, 11]: 0.74 | ppm (relative to the resonant frequency of water) [1, 12]: 3.50 ppm

O=C1CNC(=O)N1 [Hydantoin]
Mo − Ms (%) [1, 11]: 18.7% and 21.3% | Ms/Mo [1, 11]: 0.81 and 0.78

O=C(O)C1CCCCN1 (stereo not shown) [Pipecolinic Acid]
Mo − Ms (%) [1, 11]: 19.3% | Ms/Mo [1, 11]: 0.81 | ppm (relative to the resonant frequency of water) [1, 12]: 3.33 ppm

C[C@H](N)C(=O)O [L-Alanine]
Mo − Ms (%) [1, 8]: 67.4% | Ms/Mo [1, 8]: 0.36 | ppm (relative to the resonant frequency of water) [1, 9]: 3.000 ppm

N[C@@H](Cc1c[nH]c2ccccc12)C(=O)O [L-Tryptophan]
ppm (relative to the resonant frequency of water) ([1]; 35 mM, —NH2, 37° C., 20 mM phosphate buffer): 2.000 ppm | Mo − Ms (%) [1, 13]: 12.2% | Ms/Mo [1, 13]: 0.89

Cl.N [NH4Cl, reference compound]
enhancement in difference image of phantoms [3]: neither the surrounding water nor the NH4Cl control were significantly affected

Cc1cn([C@H]2C[C@H](O)[C@@H](CO)O2)c(=O)[nH]c1=O [Thymidine]
ppm (relative to the resonant frequency of water) ([1]; 125 mM, 3-NH, 37° C., 2 mM phosphate buffer): 6.333 ppm | Mo − Ms (%) [1, 14]: 34.8% | Ms/Mo [1, 14]: 0.65

O=C1NCCN1 [2-Imidazolidone]
Mo − Ms (%) [1, 15]: 30.4% and 29.8% | Ms/Mo [1, 15]: 0.68 | ppm (relative to the resonant frequency of water) [1, 15]: 1.167 ppm

OC[C@H]1O[C@@](CO)(O[C@H]2O[C@H](CO)[C@@H](O)[C@H](O)[C@H]2O)[C@@H](O)[C@@H]1O [Sucrose]
ppm (relative to the resonant frequency of water) [1, 6]: 1.333 ppm | Mo − Ms (%) [1, 7]: 10.2% | Ms/Mo [1, 7]: 0.86

O=c1ccn([C@@H]2O[C@H](CO)[C@@H](O)[C@H]2O)c(=O)[nH]1 [Uridine]
Ms/Mo [1, 14]: 0.65

O=C(CO)[C@@H](O)[C@H](O)[C@H](O)CO [Fructose]
ppm (relative to the resonant frequency of water) [1, 6]: 1.333 ppm | Mo − Ms (%) [1, 7]: 9.3% | Ms/Mo [1, 7]: 0.88

N[C@@H](Cc1c[nH]c2ccc(O)cc12)C(=O)O [5-Hydroxy-Tryptophan]
Ms/Mo [1, 11]: 0.57 and 0.79 | ppm (relative to the resonant frequency of water) [1, 12]: 2.833 ppm and 5.333 ppm | chemical shift of proton chemical exchange site (ΔωcA) [1]: 5.33 ppm and 2.83 ppm | chemical shift of proton chemical exchange site (ΔωcA) ([1]; listed as 5-HT): 5.33 ppm

O=C1CC(=O)NC(=S)N1 [2-Thio-Barbituric Acid]
Mo − Ms (%) [1, 11]: 35.3% | Ms/Mo [1, 11]: 0.65 | ppm (relative to the resonant frequency of water) [1, 12]: 6.333 ppm | chemical shift of proton chemical exchange site (ΔωcA) [1]: 6.33 ppm

CCC1(CC)C(=O)NC(=O)NC1=O [Barbital (5,5-Diethyl-Barbituric Acid), 5,5-Diethyl-Barbituric Acid]
pKa [4]: 7 | Mo − Ms (%) [1, 11]: 14.2% | Ms/Mo [1, 11]: 0.82 | ppm (relative to the resonant frequency of water) [1, 12]: 5.000 ppm

O=C1CC(=O)NC(=O)N1 [Barbituric Acid]
enhancement in difference image of phantoms ([3]; 4T, about 20° C., irradiated at ±850 Hz, barbituric acid 62.5 mM pH 7.4, 7.0, 6.5, NH4Cl 500 mM pH 5.0): enhanced | physiological response to the injection (rabbit bladder; intravenous, 125 mM solution): physiologically unaltered (i.e. no change in blood pressure) | time to reach the kidneys (rabbit bladder; intravenous, 50 mL doses of 125 mM solution, pH 7.4): ≤ 20 min | location of signal remaining in the in vivo difference image (rabbit bladder; irradiation ±900 Hz (5.25 ppm/4T)): is in the bladder, not in the muscle or other tissues | Oral dosage toxicity, LD50 [5]: > 5000 mg/kg | pKa [4]: 12 | Mo − Ms (%) [1, 11]: 32.5% | Ms/Mo [1, 11]: 0.68 | ppm (relative to the resonant frequency of water) [1, 12]: 5.000 ppm | chemical shift of proton chemical exchange site (ΔωcA) [1]: 5.00 ppm

O=C1NC(=O)C(=O)N1 [Parabanic Acid]
Mo − Ms (%) [1, 11]: 20.5% and 25.4% and 22.5% | Ms/Mo [1, 11]: 0.79 and 0.74 and 0.77
